Reference: patent US20180200232A1, “PHARMACEUTICAL COMPOSITIONS USEFUL FOR THE TREATEMENT OF TISSUE INJURY” (MedRegen, LLC, priority 2015, published 2018)
Several values for one entry are separate records, joined by “and”; a condition that tells them apart may be missing. Equal values may be shown once.

Tests used:
CXCR4 chomokin receptor = CXCR4 chomokin receptor (Homo sapiens, UniProt P61073); conditions: read-out: IC50, binds to and inhibits the CXCR4 receptor; cited from earlier work
[1] = tested on: colony forming cells (CFCs) in mobilized peripheral blood; test: CFC assay for stem cell mobilization activity in mice; format: in vivo, C57/B6 mice; conditions: peripheral blood 3 hours after drug treatment; AMD3100 1.0 mg/kg, Tacrolimus 0.1 mg/kg; vs saline (FIG. 1)
Text: Hematopoietic colony-forming cell (CFC) assays have been used extensively for research and clinical applications in humans and animal models as a way of quantifying and assessing the hematopoietic progenitor content of a cell sample. The stem cell mobilization activity can be measured by using CFC assays in mobilized peripheral blood samples. CFCs are able to divide and differentiate into a colony of more mature cells that can be detected by light microscopy. This allows for the quantification of multipotent stem cell lineages mobilized by pharmaceutical agents.
C57/B6 mice were divided into four treatment groups: 1) control group treated with saline; 2) AMD3100 group (1.0 mg/kg); (3) Tacrolimus group treated with
low-dose (0.1 mg/kg); and (4) AF Combination (containing AMD3100 and Tacrolimus). […] Viable PBMCs were counted and mixed with Methocult GF methylcellulose medium (StemCell Technologies, Vancouver, BC, Canada; Cat.: 03444) containing 100 Uml penicillin and 100 μg/ml streptomycin to give a final density of 1×10^5 viable PBMCs/1.5 ml of medium. […] Colony-forming units (CFUs) were counted using an inverted microscope (Carl Zeiss Microscopy, Thornwood, N.Y.) at ×4. The number of CFUs was determined by dividing the number of viable cells per milliliter by the number of plated cells per well and multiplying by the number of counted CFUs/well.

[2] = tested on: renal allograft rejection; test: mismatched kidney transplantation in miniature swine; format: in vivo; conditions: for Creatinine (serum): at time of death; for effect on survival: drug alone; for Survival: one animal per value; for post-operative day of death or euthanasia: single perioperative course
Text: Animals—SLA-identified donor and recipient swine (weight 50-80 kg) were obtained from Transplantation Biology Research Center of Massachusetts General Hospital, Boston, Mass. The immunogenetic characteristics of these swine have been described previously (30). Two-haplotype full MHC class I and class II mismatched donors and recipients were used for kidney transplantation. […] Institutional review board (Animal Care and Use Committee) approval was obtained for this study. All animal care and procedures were in compliance with the “Principles of Laboratory Animal Care” formulated by the National Society of Medical Research and the “Guide for the Care and Use of Laboratory Animals” prepared by the Institute of Laboratory Animal Resources, National Research Council, and published by the National Academies Press, revised 2011.
Kidney transplantation—The surgical procedure used for kidney transplantation has been described in Kirkman R L, et al. Transplantation in miniature swine. VI. Factors influencing survival of renal allografts. Transplantation 1979; 28: 18-23, the entire disclosure of which is herein incorporated by reference. Briefly, donor kidneys were flushed and persevered in cold saline for 3-6 h before reperfusion. The recipients underwent bilateral nephrectomy. […] The kidney transplantation was completed with a vesicoureteral anastomosis. An indwelling Silastic central venous catheter was placed surgically into the external or internal jugular vein. The catheter facilitated frequent blood sampling for in vitro assays and for monitoring of renal function and whole-blood Tacrolimus levels.
Rejection monitoring—Kidney function was monitored by serial serum creatinine levels. Serum creatinine and blood urea nitrogen levels were analyzed in the Phenotyping Laboratory of the Department of Comparative Medicine at Johns Hopkins. Biopsies were performed on transplant recipients using needle core biopsy via an open or percutaneous ultrasound-guided approach. Renal allograft rejection was defined as sustained rise in serum creatinine to >10 mg/dL or anuria (normal laboratory value for swine serum creatinine is 1-3 mg/dL).
Histopathological examination—Core needle biopsies or wedge biopsies were performed on renal allografts. Scoring of acute rejection was based on the Banff classification; see, e.g., Solez K, et al. Banff 07 classification of renal allograft pathology: Updates and future directions. Am J Transplant 2008; 8: 753-760, the entire disclosure of which is herein incorporated by reference. Masson trichrome staining was done according to standard protocols.
SLA-identified and -mismatched inbred miniature swine were subjected to bilateral nephrectomy and transplantation (FIG. 1B) as described in Sachs D H, et al. Transplantation in miniature swine. I. Fixation of the major histocompatibility complex. Transplantation 1976; 22: 559-567, the entire disclosure of which is herein incorporated by reference. […] VI. Factors influencing survival of renal allografts. Transplantation 1979; 28: 18-23, supra. Five experimental treatment groups were defined as follows, and each group received subcutaneous injections on days 0, 2, 4, 6, and 8 post-transplantation: (1) saline (n=1); (2) low-dose (0.03 mg/kg) Tacrolimus alone (n=3); (3) AMD3100 1 mg/kg alone (n=3); (4) AF Combination treatment (AMD3100 1 mg/kg and Tacrolimus 0.03 mg/kg) (n=1); and (5) AF Combination treatment as in group 4 but with repeat of the 8-day course at 1, 2, and 3 months post-transplantation.

[3] = tested on: cell migration stimulated by CXCL12; conditions: cited from earlier work
[4] = solubility of Tacrolimus powder in water solutions; format: physicochemical

CXCR4 chomokin receptor, sequence (P61073 whole entry): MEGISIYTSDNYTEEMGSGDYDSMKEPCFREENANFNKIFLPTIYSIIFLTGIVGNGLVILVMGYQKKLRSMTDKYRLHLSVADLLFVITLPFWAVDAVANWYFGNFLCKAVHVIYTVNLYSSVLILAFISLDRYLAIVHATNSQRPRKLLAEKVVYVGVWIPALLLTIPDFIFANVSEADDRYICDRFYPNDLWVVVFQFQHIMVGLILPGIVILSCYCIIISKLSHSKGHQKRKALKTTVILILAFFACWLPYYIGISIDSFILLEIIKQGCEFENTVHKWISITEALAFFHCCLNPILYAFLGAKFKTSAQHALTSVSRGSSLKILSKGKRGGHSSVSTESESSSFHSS

| Compound | IC50 (CXCR4 chomokin receptor) [nM] | number of colony forming cells (CFCs) [1] | Creatinine (serum) ([2]; no re-treatment, listed as AMD3100 only) | effect on survival [2] | Survival ([2]; no re-treatment, s.c. days 0, 2, 4, 6, 8, listed as AMD3100 only) | post-operative day of death or euthanasia [2] | IC50 [3] [nM] | Survival ([2]; Re-Treatment Yes) [days] | serum creatinine level ([2]; animal 21343, POD 40 after repeat dosing) [mg/dL] | serum creatinine level ([2]; animal 21343, POD 56) [mg/dL] | serum creatinine level ([2]; animal 21343, before effect of repeat dosing at 1 month) [mg/dL] | Creatinine (serum) ([2]; Re-Treatment Yes) [mg/dL] | Creatinine (serum) ([2]; no re-treatment, listed as Tacro only) | effect on survival ([2]; listed as FK506) | Survival ([2]; no re-treatment, s.c. days 0, 2, 4, 6, 8, listed as Tacro only) | post-operative day of death ([2]; redosing at 30 days) [POD] | solubility in water solutions (e.g., saline) [4] |
| --- | --- | --- | --- | --- | --- | --- | --- | --- | --- | --- | --- | --- | --- | --- | --- | --- | --- |
| 4F-benzoyl-TN14003 [BKT140] | ~1 |  |  |  |  |  |  |  |  |  |  |  |  |  |  |  |  |
| c1cc(CN2CCCNCCNCCCNCC2)ccc1CN1CCCNCCNCCCNCC1 [AMD3100, 1,1′-[1,4-phenylenebis(methylene)]bis¬1,4,8,11-tetraazacyclo-tetradecane] |  | significantly increased | 22.3 mg/dL and 17.3 mg/dL and 26.4 mg/dL | no prolongation of survival | 10 days and 16 days and 9 days | 9 POD and 10 POD and 16 POD | 51 ± 17 |  |  |  |  |  |  |  |  |  |  |
| C=CC[C@@H]1/C=C(\C)C[C@H](C)C[C@H](OC)[C@H]2O[C@@](O)(C(=O)C(=O)N3CCCC[C@H]3C(=O)O[C@H](/C(C)=C/[C@@H]3CC[C@@H](O)[C@H](OC)C3)[C@H](C)[C@@H](O)CC1=O)[C@H](C)C[C@@H]2OC [Tacrolimus] |  | significantly increased |  | prolongation of survival |  | 27 POD and 28 POD |  | 56 | 8.3 | 9.8 | 12.3 | 9.8 | 11.5 mg/dL and 9.9 mg/dL | prolonged survival but was ineffective against late rejection | 28 days and 27 days | 56 | poor solubility |
